Results: ChEMBL document CHEMBL2363022, “Malaria Box Schistosomiasis Screening Data” (2013)

Key:
Format in all cases: functional
Set-up in all cases: scale not given here
Schistosoma mansoni [1] = test system: Schistosoma mansoni
Schistosoma mansoni [2] = test system: Schistosoma mansoni; remark: listed apart in the source
Schistosoma mansoni [3] = test system: Schistosoma mansoni; remark: listed apart in the source

| SMILES | Toxicity (Schistosoma mansoni [1]) | Toxicity (Schistosoma mansoni [2]) | Toxicity (Schistosoma mansoni [3]) |
| --- | --- | --- | --- |
| COc1ccc(N2CCN(C(CNC(=O)C3CCCCC3)c3ccc4c(c3)OCO4)CC2)cc1 (stereo not given) | 0 | 0 | 0 |
| CCCCCCc1cc(O)c2c3c(c(=O)oc2c1)CCC(C)C3 (stereo not given) | 0 | 0 | 2 |
| Cc1ccc(NC(=O)Nc2cccc(Cl)c2)cc1F | 0 | 1 | 0 |
| CCOc1ccc(Nc2c3ccccc3nc3ccccc23)cc1.Cl | 4 | 2 | 3 |
| Cc1ccc(-c2cc3c(nn2)-c2ccccc2C3=O)cc1 | 0 | 0 | 0 |
| Cc1sc2ncnc(Sc3nc4ccccc4[nH]3)c2c1C | 0 | 1 | 1 |
| Brc1ccc(Nc2nc3ccccc3nc2Nc2ccc(Br)cc2)cc1 | 4 | 3 | 4 |
| COc1cccc(Nc2nc(N)c3ccccc3n2)c1.Cl | 0 | 0 | 0 |
| OC(CNC1CCCCC1)Cn1c2ccc(I)cc2c2cc(I)ccc21 (stereo not given) | 4 | 4 | 4 |
| COC(=O)c1ccc(C2C3=C(O)CC(c4ccc(F)cc4)CC3=Nc3ccccc3N2C(=O)c2ccccc2)cc1 (stereo not given) | 1 | 0 | 2 |
| CCOc1ccc2nc(C)cc(Nc3ccc(N(C)C)cc3)c2c1.Cl | 4 | 2 | 4 |
| Cc1ccc(N2C(=O)C3C(C2=O)C2(c4ccccc4)C(=O)C3(c3ccccc3)C(c3ccccc3)=C2c2ccccc2)cc1 (stereo not given) | 1 | 1 | 1 |
| O=C(CSc1ccc2nnc(-c3cccc(F)c3)n2n1)Nc1ccc2c(c1)OCO2 | 0 | 0 | 0 |
| CC(O)(c1ccc(Cl)cc1)C(CN1CCCCC1)c1ccccc1.Cl (stereo not given) | 0 | 0 | 0 |
| CCCN(CCC)CC(O)COc1ccccc1C(=O)Nc1ccccc1 (stereo not given) | 0 | 0 | 0 |
| COc1cc(C(=O)ON=C(N)Cc2cccc3ccccc23)cc(OC)c1OC | 4 | 0 | 3 |
| CCOC(=O)C1CCN(C(=O)CN2C(=O)c3ccccc3C2c2c[nH]c3ccccc23)CC1 (stereo not given) | 0 | 0 | 0 |
| O=C(Nc1ccc(N2CCN(Cc3ccccc3)CC2)cc1)c1cccs1.O=C(O)C(F)(F)F | 0 | 0 | 0 |
| O=C(NCCCN1CCC(N2CCCCC2)CC1)C1=Cc2cc(Br)ccc2OC1 | 4 | 0 | 1 |
| CN1C=C(c2ccc3ccccc3n2)C(c2c[nH]c3ccccc23)c2ccccc21 (stereo not given) | 0 | 0 | 0 |
| COc1ccc(C2NCCc3c2[nH]c2ccccc32)cc1CN1CCN(c2ccc(F)cc2)CC1.Cl (stereo not given) | 4 | 3 | 4 |
| CCN(CC)c1ccc(NC(=O)c2cccs2)cc1 | 0 | 0 | 0 |
| CC1CCN(Cc2c(O)ccc3cc(-c4nc5ccccc5s4)c(=O)oc23)CC1 | 0 | 0 | 0 |
| O=C1CC(O)(C(F)(F)C(F)(F)F)Oc2ccccc21 (stereo not given) | 1 | 0 | 0 |

| SMILES | Toxicity (Schistosoma mansoni [1]) | Toxicity (Schistosoma mansoni [2]) | Toxicity (Schistosoma mansoni [3]) |
| --- | --- | --- | --- |
| COCCn1c(C)nc2ccccc2c1=O | 0 | 0 | 0 |
| CCC(c1ccccc1)c1nn2c(-c3cccs3)nnc2s1 (stereo not given) | 0 | 0 | 0 |
| Cc1ccc(F)cc1NC(=O)c1cc(Cl)ccc1Nc1ccccc1 | 0 | 0 | 0 |
| Cc1ccccc1OCCSc1nc2ccc(NC(=O)c3cccs3)cc2s1 | 0 | 0 | 0 |
| COc1ccc(C)c2sc(N(Cc3cccnc3)C(=O)c3ccc(C#N)cc3)nc12 | 0 | 0 | 0 |
| CSc1ccccc1C(=O)Nc1nc(-c2ccccn2)cs1 | 0 | 0 | 0 |
| COc1ccc(C2N(C)c3ccccc3N2C)cc1 | 0 | 0 | 0 |
| CCC1(C)CC(CCNCc2ccccc2O)(c2ccc(C)cc2)CCO1 (stereo not given) | 4 | 2 | 2 |
| COc1ccc(C(=O)Nc2ccc3nc(N4CCCCC4)cc(C)c3c2)cc1OC | 0 | 0 | 0 |
| Cc1cc(NCCN2CCCCC2)c2ccc3ccccc3c2n1 | 4 | 4 | 4 |
| O=C(Nc1ccc(-c2nc3ccccc3[nH]2)cc1)c1ccc(Cl)c(Cl)c1 | 0 | 0 | 0 |
| CCOc1c(Cl)cc(CNC(C)C(O)c2ccccc2)cc1OC (stereo not given) | 0 | 0 | 0 |
| COc1cc(C(=O)Nc2ccc(-c3nc4ccccc4[nH]3)cc2)cc(OC)c1OC | 0 | 0 | 0 |
| N=c1n(CCN2CCCCC2)c2ccccc2n1CC(=O)c1ccc(Cl)c(Cl)c1 | 4 | 3 | 4 |
| CCC(O)c1ccc(Br)cc1NC(=O)c1cccc(Cl)c1 (stereo not given) | 0 | 0 | 0 |
| Cc1cc(NC(=O)c2ccc(-c3ccccc3)cc2)no1 | 0 | 0 | 0 |
| COc1ccc(C2c3ccc4ccccc4c3Oc3ncn(CCCN(C)C)c(=N)c32)cc1 (stereo not given) | 4 | 4 | 4 |
| CCOc1ccc(CCNC(=O)c2cccs2)cc1OCC | 0 | 0 | 0 |
| CCCCc1c(CCC)c(=N)c2ccccc2n1C.I | 0 | 0 | 0 |
| Cc1cc(NC(=O)c2cccc(C(F)(F)F)c2)n(-c2nc(-c3ccc4c(c3)OCO4)cs2)n1 | 3 | 0 | 0 |
| O=C1c2ccccc2-c2nnc(-c3ccc(Br)cc3)cc21 | 0 | 0 | 0 |
| CCn1c(CN2CCN(Cc3ccccc3)CC2)nc2cc(NC(=O)c3cccs3)ccc21 | 0 | 0 | 0 |
| Cc1ccc2cc3c(N)c4c(C)ccc(C)c4nc3nc2c1 | 0 | 0 | 0 |
| CCOc1cccc2sc(N(Cc3cccnc3)C(=O)C3CCCCC3)nc12 | 0 | 0 | 0 |

| SMILES | Toxicity (Schistosoma mansoni [1]) | Toxicity (Schistosoma mansoni [2]) | Toxicity (Schistosoma mansoni [3]) |
| --- | --- | --- | --- |
| CCCCOC(=O)c1ccc(Nc2cc(C)nc3ccc(OC)cc23)cc1 | 4 | 2 | 0 |
| COc1ccc(C2c3ccc4ccccc4c3Oc3ncn(CCCn4ccnc4)c(=N)c32)cc1OC (stereo not given) | 0 | 0 | 0 |
| Cc1sc(NC(=O)c2ccco2)c(C(c2cccnc2)N2CCC(Cc3ccccc3)CC2)c1C (stereo not given) | 4 | 1 | 4 |
| CCOc1cc2c(cc1OCC)C(c1cc(Cl)ccc1O)NCC2 (stereo not given) | 0 | 0 | 1 |
| Oc1ccc2ccccc2c1CNc1nc2ccccc2[nH]1 | 0 | 2 | 0 |
| Cc1ccc(C2CC(C(F)(F)F)n3nc(C(=O)N4CCN(C(c5ccccc5)c5ccccc5)CC4)cc3N2)cc1 (stereo not given) | 0 | 0 | 0 |
| COc1cccc(C2(C)Nc3ccccc3-c3nc4ccccc4n32)c1 (stereo not given) | 0 | 0 | 0 |
| CC1(c2ccccc2)Nc2ccccc2-c2nc3ccccc3n21 (stereo not given) | 0 | 0 | 0 |
| CCOc1ccc(-n2cc(-c3ccccc3)c3c(SCc4cc(C)ccc4C)ncnc32)cc1 | 0 | 0 | 0 |
| O=C(NNc1cc(N2CCCC2)nc(N2CCCC2)n1)c1ccccc1 | 4 | 1 | 0 |
| O=C(Nc1ccc(Cl)cc1)N1CCN(c2ccc3nncn3n2)CC1 | 0 | 0 | 0 |
| Cc1nc2ccccc2c(O)c1CC=C(Cl)Cl | 0 | 0 | 0 |
| O=C(Nc1ccccc1O)c1ccc(Oc2cccc(C(=O)Nc3ccccc3O)c2)cc1 | 2 | 0 | 2 |
| COc1ccccc1N1C(=N)SC(=Cc2ccc(OCc3ccccc3F)cc2)C1=O | 0 | 0 | 0 |
| COc1ccc(-c2cc3c(nn2)-c2ccccc2C3=O)cc1 | 0 | 0 | 0 |
| COc1ccc(C(=O)Nc2nonc2-c2ccc(OC)c(OC)c2)cc1Cl | 0 | 0 | 0 |
| CCCCNc1nc(NC(C)(C)C)nc(NC(C)(C)C)n1 | 4 | 0 | 4 |
| Cc1cc(Nc2ccc(OCc3ccccc3)cc2)nc2cc(O)ccc12 | 4 | 2 | 3 |
| O=C(Nc1ccc(Cl)cc1C(=O)Nc1ccncc1)c1ccc(Cl)cc1Cl | 0 | 0 | 0 |
| CCCCN(CCCC)S(=O)(=O)c1ccc(NC(=O)c2ccco2)cc1 | 0 | 0 | 0 |
| OC(Cn1nnc2ccccc21)Cn1c2ccc(Br)cc2c2cc(Br)ccc21 (stereo not given) | 0 | 0 | 0 |
| Nc1nc(Nc2cccc(F)c2)nc2ccccc12 | 0 | 0 | 0 |
